Results reported in the NIST ThermoML archive (doi:10.1016/j.fluid.2007.01.042).
± gives the expanded uncertainty stated by the source. Blank lines part the entries; values can stand above or below the compound they belong to.

Details: Liquid, Ebulliometric method (Recirculating still)

Compound: ClC(Cl)(Cl)Cl [tetrachloromethane]
vapor or sublimation pressure (322.04 K): 40 ± 0.04 kPa
vapor or sublimation pressure (330.08 K): 53.33 ± 0.04 kPa
vapor or sublimation pressure (336.65 K): 66.66 ± 0.05 kPa
vapor or sublimation pressure (342.21 K): 79.99 ± 0.06 kPa
vapor or sublimation pressure (347.09 K): 93.32 ± 0.06 kPa

vapor or sublimation pressure (401.71 K): 40 ± 0.09 kPa
vapor or sublimation pressure (411.34 K): 53.33 ± 0.11 kPa
vapor or sublimation pressure (419.2 K): 66.66 ± 0.14 kPa
vapor or sublimation pressure (425.9 K): 79.99 ± 0.17 kPa
vapor or sublimation pressure (431.77 K): 93.32 ± 0.19 kPa
Compound: Cc1ccc(Cl)cc1 [4-chlorotoluene]

vapor or sublimation pressure (344.18 K): 40 ± 0.09 kPa
vapor or sublimation pressure (352.8 K): 53.33 ± 0.11 kPa
vapor or sublimation pressure (359.85 K): 66.66 ± 0.14 kPa
vapor or sublimation pressure (365.87 K): 79.99 ± 0.17 kPa
vapor or sublimation pressure (371.15 K): 93.32 ± 0.19 kPa
Compound: CC1CCCCC1 [methylcyclohexane]

Compound: Cc1cccc(C)c1 [1,3-dimethylbenzene]
vapor or sublimation pressure (380.51 K): 40 ± 0.09 kPa
vapor or sublimation pressure (389.66 K): 53.33 ± 0.11 kPa
vapor or sublimation pressure (397.13 K): 66.66 ± 0.14 kPa
vapor or sublimation pressure (403.51 K): 79.99 ± 0.17 kPa
vapor or sublimation pressure (409.09 K): 93.32 ± 0.19 kPa

vapor or sublimation pressure (377.54 K): 40 ± 0.09 kPa
vapor or sublimation pressure (386.69 K): 53.33 ± 0.11 kPa
vapor or sublimation pressure (394.14 K): 66.66 ± 0.14 kPa
vapor or sublimation pressure (400.51 K): 79.99 ± 0.17 kPa
vapor or sublimation pressure (406.12 K): 93.32 ± 0.19 kPa
Compound: CCc1ccccc1 [ethylbenzene]

vapor or sublimation pressure (324.44 K): 40 ± 0.04 kPa
vapor or sublimation pressure (331.9 K): 53.33 ± 0.05 kPa
vapor or sublimation pressure (337.99 K): 66.66 ± 0.06 kPa
vapor or sublimation pressure (343.18 K): 79.99 ± 0.07 kPa
vapor or sublimation pressure (347.7 K): 93.32 ± 0.08 kPa
Compound: CCOC(C)=O [ethyl acetate]

vapor or sublimation pressure (325.65 K): 40 ± 0.04 kPa
vapor or sublimation pressure (333.77 K): 53.33 ± 0.04 kPa
vapor or sublimation pressure (340.43 K): 66.66 ± 0.05 kPa
vapor or sublimation pressure (346.11 K): 79.99 ± 0.06 kPa
vapor or sublimation pressure (351.12 K): 93.32 ± 0.06 kPa
Compound: C1CCCCC1 [cyclohexane]

vapor or sublimation pressure (398.81 K): 40 ± 0.05 kPa
vapor or sublimation pressure (408.41 K): 53.33 ± 0.06 kPa
vapor or sublimation pressure (416.25 K): 66.66 ± 0.08 kPa
vapor or sublimation pressure (422.91 K): 79.99 ± 0.09 kPa
vapor or sublimation pressure (428.76 K): 93.32 ± 0.11 kPa
Compound: Cc1ccccc1Cl [2-chlorotoluene]

vapor or sublimation pressure (325.6 K): 40 ± 0.04 kPa
vapor or sublimation pressure (333.56 K): 53.33 ± 0.04 kPa
vapor or sublimation pressure (340.06 K): 66.66 ± 0.05 kPa
vapor or sublimation pressure (345.61 K): 79.99 ± 0.06 kPa
vapor or sublimation pressure (350.5 K): 93.32 ± 0.06 kPa
Compound: c1ccccc1 [benzene]

vapor or sublimation pressure (342.77 K): 40 ± 0.05 kPa
vapor or sublimation pressure (351.08 K): 53.33 ± 0.07 kPa
vapor or sublimation pressure (357.85 K): 66.66 ± 0.08 kPa
vapor or sublimation pressure (363.64 K): 79.99 ± 0.1 kPa
vapor or sublimation pressure (368.7 K): 93.32 ± 0.11 kPa
Compound: CCCCCCC [heptane]
